From ChEMBL document CHEMBL3751761, “Analogues of boswellic acids as inhibitors of pro-inflammatory cytokines TNF-α and IL-6” (Bioorg Med Chem Lett, 2016) come the findings set out here.

Data set [1] relates to PBMC. The data set can be described thus: Anti-inflammatory activity in human PBMC assessed as inhibition of LPS-induced TNFalpha expression at 10 uM after 5 hrs. In kind it is functional.
Data set [2] deals with PBMC. The data set can be described thus: Anti-inflammatory activity in human PBMC assessed as inhibition of LPS-induced IL-6 expression at 10 uM after 5 hrs. In kind it is functional.
The nature of data set [3]: Cytotoxicity against human FR2 cells assessed as cell viability at 10 uM after 48 hrs by MTT assay. In kind it is cell-based. The conditions noted are these: read-out: Activity. Background: Formazan colour is commonly taken as a measure of viable cells.
Data set [4] deals with Mus musculus. As to the kind of experiment: Anti-inflammatory activity in BALB/c mouse assessed as inhibition of LPS-induced TNFalpha expression at 10 mg/kg, po pre-treated for 1 hr followed by LPS administration measured 2.5 hrs after LPS challenge by ELISA. The data set is classed as functional. Background: An ELISA detects its analyte on a solid surface through an enzyme-linked reagent.

Data set [5] has as its system Mus musculus. As to the kind of experiment: Anti-inflammatory activity in BALB/c mouse assessed as inhibition of LPS-induced IL-6 expression at 10 mg/kg, po pre-treated for 1 hr followed by LPS administration measured 2.5 hrs after LPS challenge by ELISA. The data set is classed as functional.

As a reminder, the inhibition is the percentage by which the read-out fell short of the control. Consider `CCC(=O)O[C@@H]1CC[C@@]2(C)[C@@H](CC[C@]3(C)[C@@H]2CC=C2[C@@H]4[C@@H](C)[C@H](C)CC[C@]4(C)CC[C@]23C)[C@@]1(C)C(=O)O`, for which the inhibition at 10 µM came out at 40% with PBMC [1] and 43.5% with PBMC [2].
For `CCCC(=O)O[C@@H]1CC[C@@]2(C)[C@@H](CC[C@]3(C)[C@@H]2CC=C2[C@@H]4[C@@H](C)[C@H](C)CC[C@]4(C)CC[C@]23C)[C@@]1(C)C(=O)O`, in that order: 41.4% and 34.8%.
For `CCC(=O)O[C@@H]1CC[C@@]2(C)[C@@H](CC[C@]3(C)[C@@H]2C(=O)C=C2[C@@H]4[C@@H](C)[C@H](C)CC[C@]4(C)CC[C@]23C)[C@@]1(C)C(=O)O`, in that order: 38.9% and 36.6%.
For `CCCC(=O)O[C@@H]1CC[C@@]2(C)[C@@H](CC[C@]3(C)[C@@H]2C(=O)C=C2[C@@H]4[C@@H](C)[C@H](C)CC[C@]4(C)CC[C@]23C)[C@@]1(C)C(=O)O`, in that order: 34.1% and 22.5%.
Usually inhibition in vivo stands for the percentage by which the read-out fell short of the control. For the compound `CCCC(=O)O[C@H]1CC[C@@]2(C)[C@@H](CC[C@]3(C)[C@@H]2CC=C2[C@@H]4[C@@H](C)[C@H](C)CC[C@]4(C)CC[C@]23C)[C@@]1(C)C(=O)O`, the values for the inhibition at 10 µM in the data set on PBMC [1] and in the data set on PBMC [2] were 68.9% and 39.5%, respectively. The viability at 48 h, 10 µM in data set [3] worked out at 83%. The inhibition in vivo at 10 mg/kg in the data set with Mus musculus [4] is 58.7%; in the data set with Mus musculus [5] it was 51.6%.
For `CCCC(=O)O[C@H]1CC[C@@]2(C)[C@@H](CC[C@]3(C)[C@@H]2C(=O)C=C2[C@@H]4[C@@H](C)[C@H](C)CC[C@]4(C)CC[C@]23C)[C@@]1(C)C(=O)O`, the inhibition at 10 µM was determined as 44.2% with PBMC [1] and 52.3% with PBMC [2]. For the same compound, the viability at 48 h, 10 µM in data set [3] turned out to be 80%. Also, the figures for the inhibition in vivo at 10 mg/kg in the data set with Mus musculus [4] and in the data set on Mus musculus [5] were 37.8% and 48.5%, respectively.
For `C[C@H]1[C@H](C)CC[C@]2(C)CC[C@]3(C)C(=CC(=O)[C@@H]4[C@@]5(C)CC[C@H](O)[C@](C)(C(=O)O)[C@@H]5CC[C@]43C)[C@H]12`, in that order: 53.5%, 49.6%, 100%, 71.3% and 28.9%.
As for `CC(=O)O[C@H]1CC[C@@]2(C)[C@@H](CC[C@]3(C)[C@@H]2CC=C2[C@@H]4[C@@H](C)[C@H](C)CC[C@]4(C)CC[C@]23C)[C@@]1(C)C(=O)O`, the inhibition at 10 µM in the data set on PBMC [1] came out at 57.9%; with PBMC [2] it was 51.1%. For the same compound, the viability at 48 h, 10 µM in data set [3] amounted to 99%. The inhibition in vivo at 10 mg/kg with Mus musculus [5] stood at 19.5%.
Take `CC(=O)O[C@H]1CC[C@@]2(C)[C@@H](CC[C@]3(C)[C@@H]2C(=O)C=C2[C@@H]4[C@@H](C)[C@H](C)CC[C@]4(C)CC[C@]23C)[C@@]1(C)C(=O)O`: the results for the inhibition at 10 µM in the data set with PBMC [1] and in the data set on PBMC [2] were 39.6% and 44.7%, respectively.
Turning to `CC(=O)O[C@@H]1CC[C@@]2(C)[C@@H](CC[C@]3(C)[C@@H]2CC=C2[C@@H]4[C@@H](C)[C@H](C)CC[C@]4(C)CC[C@]23C)[C@@]1(C)C(=O)O`, the inhibition at 10 µM in the data set on PBMC [1] was 43.8%.
Still for that read-out and setting: the value for `CC(=O)O[C@@H]1CC[C@@]2(C)[C@@H](CC[C@]3(C)[C@@H]2CC=C2[C@@H]4[C@@H](C)[C@H](C)CC[C@]4(C)CC[C@]23C)[C@@]1(C)N=C=O` was 40.6%.
In the case of `CC(=O)O[C@@H]1CC[C@]2(C)[C@H]3CC=C4[C@@H]5[C@@H](C)[C@H](C)CC[C@]5(C)CC[C@@]4(C)[C@]3(C)CC[C@H]2[C@@]1(C)N`, the inhibition at 10 µM in the data set with PBMC [1] came to 68.3%; in the data set with PBMC [2], 63.3%. Also, the viability at 48 h, 10 µM in data set [3] turned out to be 100%. Also, the inhibition in vivo at 10 mg/kg with Mus musculus [4] was 39.5%; with Mus musculus [5] it was 41.4%.
On the same counts, the results for `CC(=O)O[C@@H]1CC[C@]2(C)[C@H]3C(=O)C=C4[C@@H]5[C@@H](C)[C@H](C)CC[C@]5(C)CC[C@@]4(C)[C@]3(C)CC[C@H]2[C@@]1(C)N` are 78.9%, 58.4%, 97%, 53.3% and 39.1%.
On the same counts, the results for `CCCCCC(=O)O[C@H]1CC[C@@]2(C)[C@@H](CC[C@]3(C)[C@@H]2C(=O)C=C2[C@@H]4[C@@H](C)[C@H](C)CC[C@]4(C)CC[C@]23C)[C@@]1(C)C(=O)O` are 44.7%, 64%, 85%, 30.7% and 44.1%.
As for `CCCCCC(=O)O[C@H]1CC[C@@]2(C)[C@@H](CC[C@]3(C)[C@@H]2CC=C2[C@@H]4[C@@H](C)[C@H](C)CC[C@]4(C)CC[C@]23C)[C@@]1(C)C(=O)O`, the inhibition at 10 µM came to 42.5% in the data set with PBMC [1] and 53.4% in the data set on PBMC [2]. In data set [3], the viability at 48 h, 10 µM was 97%. In addition, the inhibition in vivo at 10 mg/kg in the data set on Mus musculus [4] came out at 59.3%; in the data set with Mus musculus [5], 41.6%.
For `CCCCCC(=O)O[C@@H]1CC[C@@]2(C)[C@@H](CC[C@]3(C)[C@@H]2CC=C2[C@@H]4[C@@H](C)[C@H](C)CC[C@]4(C)CC[C@]23C)[C@@]1(C)C(=O)O`, in that order: 72.3%, 50.5%, 89%, 42.5% and 57.5%.
As for `CCCCCC(=O)O[C@@H]1CC[C@@]2(C)[C@@H](CC[C@]3(C)[C@@H]2C(=O)C=C2[C@@H]4[C@@H](C)[C@H](C)CC[C@]4(C)CC[C@]23C)[C@@]1(C)C(=O)O`, the inhibition at 10 µM with PBMC [1] is 18.3%; with PBMC [2], 13.8%.
For `C[C@H]1[C@H](C)CC[C@]2(C)CC[C@]3(C)C(=CC[C@@H]4[C@@]5(C)CC[C@H](O)[C@](C)(C(=O)O)[C@@H]5CC[C@]43C)[C@H]12`, in that order: 41.4% and 42.3%.
Take `CC(=O)O[C@@H]1CC[C@@]2(C)[C@@H](CC[C@]3(C)[C@@H]2C(=O)C=C2[C@@H]4[C@@H](C)[C@H](C)CC[C@]4(C)CC[C@]23C)[C@@]1(C)N=C=O`: the inhibition at 10 µM in the data set on PBMC [1] came to 40.6%; with PBMC [2], 69.8%. The viability at 48 h, 10 µM in data set [3] amounted to 91%. Also, the inhibition in vivo at 10 mg/kg came to 26.4% in the data set on Mus musculus [4] and 40.2% in the data set with Mus musculus [5].
On the same counts, the results for `C[C@H]1[C@H](C)CC[C@]2(C)CC[C@]3(C)C(=CC(=O)[C@@H]4[C@@]5(C)CC[C@@H](O)[C@](C)(C(=O)O)[C@@H]5CC[C@]43C)[C@H]12` [11-KETO BOSWELLIC ACID] are 56.3%, 59.6%, 86%, 58.7% and 61.6%.
For `CC(=O)O[C@@H]1CC[C@@]2(C)[C@@H](CC[C@]3(C)[C@@H]2C(=O)C=C2[C@@H]4[C@@H](C)[C@H](C)CC[C@]4(C)CC[C@]23C)[C@@]1(C)C(=O)O` [AKBA], in that order: 55%, 53.9%, 100%, 70.7% and 54.3%.
On the same counts, the results for `C[C@H]1[C@H](C)CC[C@]2(C)CC[C@]3(C)C(=CC[C@@H]4[C@@]5(C)CC[C@@H](O)[C@](C)(C(=O)O)[C@@H]5CC[C@]43C)[C@H]12` [BOSWELLIC ACID] are 44.5%, 48.6%, 73%, 50.8% and 53%.
`COc1ccc(C2CNC(=O)C2)cc1OC1CCCC1` (centres undefined) [ROLIPRAM]: the inhibition at 10 µM turned out to be 34.6% in the data set with PBMC [1] and 26.2% with PBMC [2]. The inhibition in vivo at 10 mg/kg in the data set on Mus musculus [4] amounted to 48.1%; in the data set on Mus musculus [5], 36.9%.
